In the test the target is T1, CCR2 (Homo sapiens, UniProt P41597).
T1 construct: host or cells: THP-1 (human monocytic cell line)
Nature of the test: MCP-1 Receptor Binding Assay in THP-1 Cells. Conditions: read-out: MCP1B_v3 IC50. In outline:
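Human monocytic THP-1 cells incubated 2 h at 30 °C with 0.5 nM 125I-MCP-1 and varying concentrations of test compound or unlabelled MCP-1. Cells filter-harvested and counted by scintillation; blank subtracted, compared with vehicle; nonspecific binding with 1 μM cold MCP-1.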

pIC50: −log10 of the molar value.

T1 sequence (P41597 whole entry): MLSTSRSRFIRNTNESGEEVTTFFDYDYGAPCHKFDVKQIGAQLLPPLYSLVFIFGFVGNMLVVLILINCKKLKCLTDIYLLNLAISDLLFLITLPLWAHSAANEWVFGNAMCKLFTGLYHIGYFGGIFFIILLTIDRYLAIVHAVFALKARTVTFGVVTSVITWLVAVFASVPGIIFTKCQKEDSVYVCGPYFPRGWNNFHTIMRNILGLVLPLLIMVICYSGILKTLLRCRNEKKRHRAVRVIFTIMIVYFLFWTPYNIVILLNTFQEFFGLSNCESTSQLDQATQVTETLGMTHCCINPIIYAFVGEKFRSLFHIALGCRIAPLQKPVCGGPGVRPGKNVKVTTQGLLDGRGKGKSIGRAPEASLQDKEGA

As to `COC1COCCC1N[C@@H]1C[C@H]2CN(C3=NCCS3)C[C@@]2(C(=O)N2CCc3ncc(C(F)(F)F)cc3C2)C1` (relative stereo) [Example 112, ((3aR,5R,6aR)-2-(4,5-Dihydrothiazol-2-yl)-5-(((3S*,4S*)-3-methoxytetrahydro-2H-pyran-4-yl)amino)octahydrocyclopenta[c]pyrrol-3a-yl)(3-(trifluoromethyl)-7,8-dihydro-1,6-naphthyridin-6(5H)-yl)methanone], the pIC50 is 5.44.
Next, `COC1COCCC1N[C@@H]1C[C@H]2CN(C3=NCCO3)C[C@@]2(C(=O)N2CCc3ncc(C(F)(F)F)cc3C2)C1` (relative stereo) [Example 113, ((3aR,5R,6aR)-2-(4,5-Dihydrooxazol-2-yl)-5-(((3S*,4S*)-3-methoxytetrahydro-2H-pyran-4-yl)amino)octahydrocyclopenta[c]pyrrol-3a-yl)(3-(trifluoromethyl)-7,8-dihydro-1,6-naphthyridin-6(5H)-yl)methanone]: 7.00; `COC1COCCC1N[C@@H]1C[C@H]2CN(C=O)C[C@@]2(C(=O)N2CCc3ncc(C(F)(F)F)cc3C2)C1` (relative stereo) [Example 114, (3aR,5R,6aR)-5-(((3S*,4S*)-3-Methoxytetrahydro-2H-pyran-4-yl)amino)-3a-(3-(trifluoromethyl)-5,6,7,8-tetrahydro-1,6-naphthyridine-6-carbonyl)hexahydrocyclopenta-[c]pyrrole-2(1H)-carbaldehyde]: 6.43; `COC1COCCC1N[C@@H]1C[C@H]2CN(/C(N)=N\C#N)C[C@@]2(C(=O)N2CCc3ncc(C(F)(F)F)cc3C2)C1` (relative stereo) [Example 115, (3aR,5R,6aR,E)-N′-Cyano-5-(((3S*,4S*)-3-methoxytetrahydro-2H-pyran-4-yl)amino)-3a-(3-(trifluoromethyl)-5,6,7,8-tetrahydro-1,6-naphthyridine-6-carbonyl)hexahydrocyclopenta-[c]pyrrole-2(1H)-carboximidamide]: 7.40.
Turning to `COC1COCCC1N[C@@H]1C[C@H]2CN(/C(N)=N/O)C[C@@]2(C(=O)N2CCc3ncc(C(F)(F)F)cc3C2)C1` (relative stereo) [Example 116, (3aR,5R,6aR,E)-N′-Hydroxy-5-(((3S*,4S*)-3-methoxytetrahydro-2H-pyran-4-yl)amino)-3a-(3-(trifluoromethyl)-5,6,7,8-tetrahydro-1,6-naphthyridine-6-carbonyl)hexahydro-cyclopenta[c]pyrrole-2(1H)-carboximidamide], the pIC50 was 5.74.
With `COC1COCCC1N[C@@H]1C[C@H]2CN(C#N)C[C@@]2(C(=O)N2CCc3ncc(C(F)(F)F)cc3C2)C1` (relative stereo) [Example 117, (3aR,5R,6aR)-5-(((3S*,4S*)-3-Methoxytetrahydro-2H-pyran-4-yl)amino)-3a-(3-(trifluoromethyl)-5,6,7,8-tetrahydro-1,6-naphthyridine-6-carbonyl)hexahydrocyclopenta[c]pyrrole-2(1H)-carbonitrile], the pIC50 was 5.27.
Then `COC1COCCC1N[C@@H]1C[C@H]2C(=O)NC[C@@]2(C(=O)N2CCc3ncc(C(F)(F)F)cc3C2)C1` (relative stereo) [Example 118, (3aR,5R,6aR)-5-(((3S*,4S*)-3-Methoxytetrahydro-2H-pyran-4-yl)amino)-3a-(3-(trifluoromethyl)-5,6,7,8-tetrahydro-1,6-naphthyridine-6-carbonyl)hexahydro-cyclopenta[c]pyrrol-(2H)-one], with 4.64; and `COC1COCCC1N[C@@H]1C[C@H]2CNC(=O)[C@@]2(C(=O)N2CCc3ncc(C(F)(F)F)cc3C2)C1` (relative stereo) [Example 119, (3aR,5R,6aR)-5-(((3S*,4S*)-3-Methoxytetrahydro-2H-pyran-4-yl)amino)-6a-(3-(trifluoromethyl)-5,6,7,8-tetrahydro-1,6-naphthyridine-6-carbonyl)hexahydrocyclopenta-[c]pyrrol-1(2H)-one], with 4.92; and `CO[C@@H]1COCC[C@@H]1N[C@@H]1C[C@H]2CN(C(N)=O)C[C@@]2(C(=O)N2CCc3ncc(C(F)(F)F)cc3C2)C1` [Example 3], with 7.52.

As usually defined, the pIC50 is −log10 of the IC50, conventionally taken in molar units.

Source of the values: US9024017B2, “Octahydro-cyclopentapyrrolyl antagonists of CCR2” (Janssen Pharmaceutica NV, priority 2012, dated 2015).
